For data set [1], the system named is Plasmopara viticola. Kind of data set: Leaf disk assay, downy mildew of grapevine, preventive fungicidal activity. As to conditions: foliar, 168 h. It counts as in vivo.
Data set [2] concerns Phytophthora infestans. Briefly: whole plant or invertebrate. As to conditions: in Solanum lycopersicum, foliar, 96 h, read-out: control of Phytophthora infestans. In kind it is in vivo.
Setting [3] is: grapevine leaf disks, preventive, assessed seven days after inoculation.

`CC#CC(C)(C)NC(=O)C(CCC)Oc1cncc(Cl)c1` (centres unmarked) [Compound No. 3 of Table 1, 2-(5chloro-3-pyridyloxy)-N-(2-methylpent-3-yn-2-yl)valeramide]: the pest or weed control at 200 ppm in data set [1] (setting [3]) and in data set [2] was at least 70% each time. Regarding `C#Cc1cncc(OC(CC)C(=O)NC(C)(C)C#CC)c1` (centres unmarked) [Compound No. 358 of Table 1, 2-(5-ethynyl-3-pyridyloxy)-N-(4-methylpent-2-yn-4-yl)butyramide], the pest or weed control at 200 ppm in data set [1] was at least 70%. `CC#CC(C)(C)NC(=O)C(CC)Oc1cncc(Cl)c1` (centres unmarked) [Compound No. 8 of Table 1, 2-(5-chloro-3-pyridyloxy)-N-(2-methylpent-3-yn-2-yl)butyramide] came in with a pest or weed control at 200 ppm in data set [1] (setting [3]) of at least 70%. For `CC#CC(C)(C)NC(=O)C(CC)Oc1cncc(Oc2ccccc2)c1SC` (centres unmarked) [Compound No. 263 of Table 1, 2-(4-methylthio-5-phenoxy-3-pyridyloxy)-N-(4-methylpent-2-yn-4-yl)butyramide], the pest or weed control at 200 ppm in data set [1] and in data set [2] was at least 70% in each case. As for `CCC#CC(C)(C)NC(=O)C(CC)Oc1cncc(C(=O)N(C(C)C)C(C)C)c1` (centres unmarked) [Compound No. 15 of Table 1, 2-(5-(N,N-diisopropylaminocarbonyl)-3-pyridyloxy)-N-(5-methylhex-3-yn-5-yl)butyramide], the pest or weed control at 200 ppm in data set [1] (setting [3]) and in data set [2] was at least 70% throughout.

`CCC(Oc1cnc(Cl)c(Cl)c1)C(=O)NC(C)(C)C#CCOC` (centres unmarked) [Compound No. 259 of Table 1, 2-(5,6-dichloro-3-pyridyloxy)-N-(1-methoxy-4-methylpent-2-yn-4-yl)butyramide] displayed a pest or weed control at 200 ppm in data set [1] of at least 70%. For the molecule `CCC#CC(C)(C)NC(=O)C(CC)Oc1cncc(Cl)c1` (centres unmarked) [Compound No. 1 of Table 1, 2-(5-chloro-3-pyridyloxy)N-(2-methylhex-3-yn-2-yl)butyramide], the pest or weed control at 200 ppm in data set [1] (setting [3]) was at least 70%. `CC#CC(C)(C)NC(=O)Cc1ccccc1Oc1cncc(Cl)c1` [Compound No. 11 of Table 1, 2-(5-chloro-3-pyridyloxy)-N-(2-methylpent-3-yn-2-yl)phenylacetamide]: in data set [2], the pest or weed control at 200 ppm was at least 70%.

Molecule `CC#CC(C)(CC)NC(=O)C(CC)Oc1cncc(Cl)c1` (centres unmarked) [Compound No. 136 of Table 1, 2-(5chloro-3-pyridyloxy)-N-(4methylhex-2-yn-4-yl)butyramide] showed a pest or weed control at 200 ppm in data set [1] (setting [3]) of at least 70%.

In data set [1] (setting [3]), `CC#CC(C)(C)N(C)C(=O)C(CC)Oc1cncc(Cl)c1` (centres unmarked) [Compound No. 10 of Table 1, 2-(5-chloro-3-pyridyloxy)-N-methyl-N-(2-methylpent-3-yn-2-yl)butyramide] showed a pest or weed control at 200 ppm of at least 70%. For the molecule `CCC(Oc1cncc(Cl)c1)C(=O)NC(C#CC(C)C)OC` (centres unmarked) [Compound No. 49 of Table 1, 2-(5-chloro-3-pyridyloxy)-N-(1-methoxy-4-methylpent-2-ynyl)butyramide], the pest or weed control at 200 ppm in data set [1] is at least 70%.

Consider `CC#CC(C)(C)NC(=O)C(CC)Oc1cncc(C#N)c1` (centres unmarked) [Compound No. 342 of Table 1, 2-(5-cyano-3-pyridyloxy)-N-(4-methylpent-2-yn-4-yl)butyramide], for which the pest or weed control at 200 ppm in data set [1] and in data set [2] was at least 70% each time. Take `CC#CC(C)(C)NC(=O)C(COC)Oc1cncc(Cl)c1` (centres unmarked) [Compound No. 21 of Table 1, 2-(5-chloro-3-pyridyloxy)-N-(4-methylpent-2-yn-4-yl)-3-methoxypropionamide]: the pest or weed control at 200 ppm in data set [1] was at least 70%. For the molecule `CCC#CC(C)(C)NC(=O)C(CC)Oc1cncc(Br)c1` (centres unmarked) [Compound No. 14 of Table 1, 2-(5-bromo-3-pyridyloxy)-N-(2-methylhex-3-yn-2-yl)butyramide], the pest or weed control at 200 ppm in data set [1] (setting [3]) was at least 70%. In the case of `CCCC#CC(C)(C)NC(=O)C(CC)Oc1cncc(Br)c1` (centres unmarked) [Compound No. 128 of Table 1, 2-(5-bromo-3-pyridyloxy)-N-(6-methylhept4-yn-6-yl)butyramide], the pest or weed control at 200 ppm in data set [1] (setting [3]) and in data set [2] was at least 70% each time. For `C=Cc1cncc(OC(CC)C(=O)NC(C)(C)C#CC)c1` (centres unmarked) [Compound No. 374 of Table 1, 2-(5-ethenyl-3-pyridyloxy)-N-(4-methylpent-2-yn-4-yl)butyramide], the pest or weed control at 200 ppm in data set [2] was at least 70%. `CC#CC(C)(C)NC(=O)C(CC)Oc1cncc(Br)c1` (centres unmarked) [Compound No. 13 of Table 1, 2-(5-bromo-3-pyridyloxy)-N-(2-methylpent-3-yn-2-yl)butyramide]: the pest or weed control at 200 ppm in data set [1] (setting [3]) is at least 70%. As a reminder, the melting point is the temperature, or range, at which the solid turns liquid. `CCC#CC(C)(C)NC(=O)C(CC)Oc1cncc(C(=O)O)c1` (centres unmarked) registered a melting point of 162 to 164 °C. In the case of `CC#CC(C)(C)NC(=O)C(CC)Oc1cncc(C(C)=O)c1` (centres unmarked) [Compound No. 326 of Table 1, 2-(5-acetyl-3-pyridyloxy)-N-(4-methylpent-2-yn-4-yl)butyramide], the pest or weed control at 200 ppm in data set [2] was at least 70%. Regarding `CCCC#CC(C)(C)NC(=O)C(CC)Oc1cncc(Cl)c1` (centres unmarked) [Compound No. 120 of Table 1, 2-(5-chloro-3-pyridyloxy)-N-(6-methylhept-4-yn-6-yl)butyramide], the melting point lay in the range of 70 to 71 °C. Moreover, the pest or weed control at 200 ppm in data set [1] (setting [3]) was at least 70%. For the molecule `C=C(OCC)c1cncc(OC(CC)C(=O)NC(C)(C)C#CC)c1` (centres unmarked) [Compound No. 378 of Table 1, 2-[5-(1-ethoxyethen-1-yl)-3-pyridyloxy]-N-(4-methylpent-2-yn-4-yl)butyramide], the pest or weed control at 200 ppm in data set [2] is at least 70%. The molecule `CC#CC(C)(C)NC(=O)C(CC)Oc1cnc(Cl)c(Cl)c1` (centres unmarked) [Compound No. 247 of Table 1, 2-(5,6-dichloro-3-pyridyloxy)-N-(4-methylpent-2-yn-4-yl)butyramide] returned a pest or weed control at 200 ppm in data set [1] of at least 70%. With `CC#CC(C)(C)NC(=O)C(CC)Oc1cncc(Br)c1` (single isomer, unassigned; (-)) [(−) isomer of Compound 13 of Table 1, (−) 2-(5-bromo-3-pyridyloxy)-N-(4-methylpent-2-yn-4-yl)butyramide], the pest or weed control at 200 ppm in data set [2] is at least 70%.

(Values after patent publication US7166621B2, “Pyridyloxyalkanoic acid amide derivatives useful as fungicides” (priority 2001, dated 2007).)
